Assay results as given in patent US20230284621A1, “HERBICIDAL COMPOSITIONS” (PBI-Gordon Corporation, priority 2022, published 2023).

Columns and labels:
[1] = Chemical stability, ambient storage; format: physicochemical; conditions: for 17 Months (% Change from Initial): active ingredient in Professional Formulation 1, 17 Months (title: 14 Months); for 16 Months (% Change from Initial): active ingredient in Professional Formulation 2
Experimental: (§1) Formulations were prepared as described in Example I. Physically stable formulations (no settling or physical issues observed) were tested for chemical stability over various time spans and temperature conditions.

[2] = Chemical stability, accelerated 40° C. storage; format: physicochemical; conditions: for 30 Days @ 40° C. (% Change from Initial): 30 days at 40° C.; for 42 Days @ 40° C. (% Change from Initial): 42 days at 40° C.
Experimental: as §1
Formulations were prepared as described in Example III. Physically stable formulations (no settling or physical issues observed) were tested for chemical stability over various time spans and temperature conditions.

[3] = active ingredient in Consumer Formulation 3
[4] = active ingredient in Professional Formulation 1
[5] = active ingredient in Professional Formulation 2
[6] = active ingredient in Ready to Use Formulation 3
[7] = active ingredient in Ready-to-Use Formulation 2

SMILES | 17 Months (% Change from Initial) [1] | 16 Months (% Change from Initial) [1] | 30 Days @ 40° C. (% Change from Initial) [2, 3] | 42 Days @ 40° C. (% Change from Initial) [2, 4] | 42 Days @ 40° C. (% Change from Initial) [2, 5] | 30 Days @ 40° C. (% Change from Initial) [2, 6] | 30 Days @ 40° C. (% Change from Initial) [2, 7]
O=C(O)COc1ccc(Cl)cc1Cl [2,4-D acid] | +2.71% | −2.02% | −0.21% | +0.66% | +1.38% | −.21% | +0.83%
COc1c(Cl)ccc(Cl)c1C(=O)O [Dicamba acid, 3,6-dichloro-2-methoxybenzoic acid] | +2.04% | −0.80% | 0.00% | −4.11% | 0.00% | −1.79% | +1.10%
Cc1nn(-c2cc(NS(C)(=O)=O)c(Cl)cc2Cl)c(=O)n1C(F)F [Sulfentrazone, N-[2,4-dichloro-5-[4-(difluoromethyl)-3-methyl-5-oxo-1,2,4-triazol-1-yl]phenyl]methanesulfonamide] | +3.60% | +5.71% | 0.00% | +1.30% | +0.29% | −0.33% | −0.67%
Cc1c(C(=O)c2c[nH]n(C)c2=O)ccc(S(C)(=O)=O)c1C1=NOCC1 [Topramazone, 4-[3-(4,5-dihydro-1,2-oxazol-3-yl)-2-methyl-4-methylsulfonylbenzoyl]-2-methyl-1H-pyrazol-3-one] | −4.79% | −4.40% | −1.53% | −3.89% | +1.14% | −0.46% | 0.00%
